Values of other authors, collected in patent US6562588B2, “Sialidase and recombinant cell lines” (Genentech, Inc., priority 1993, dated 2003).
Read-outs that look alike come from different tables or passages of the source.

Columns and labels:
[1] = biological target: cytosolic sialidase from rat muscle (Rattus norvegicus, UniProt Q64627); settings: read-out: Ki, rat muscle sialidase (Cytosol)
[2] = biological target: T1, lysosomal sialidase (Fibroblasts) (Homo sapiens, UniProt Q99519); settings: read-out: Ki, fibroblast sialidase (Lysosome)
T1 construct: host or cells: fibroblasts

[3] = system: plasma membrane sialidase (Adenovirus Transformed Kidney Cells); settings: read-out: Ki, adenovirus transformed kidney cell sialidase (Plasma Membrane)

cytosolic sialidase from rat muscle, sequence (Q64627 whole entry): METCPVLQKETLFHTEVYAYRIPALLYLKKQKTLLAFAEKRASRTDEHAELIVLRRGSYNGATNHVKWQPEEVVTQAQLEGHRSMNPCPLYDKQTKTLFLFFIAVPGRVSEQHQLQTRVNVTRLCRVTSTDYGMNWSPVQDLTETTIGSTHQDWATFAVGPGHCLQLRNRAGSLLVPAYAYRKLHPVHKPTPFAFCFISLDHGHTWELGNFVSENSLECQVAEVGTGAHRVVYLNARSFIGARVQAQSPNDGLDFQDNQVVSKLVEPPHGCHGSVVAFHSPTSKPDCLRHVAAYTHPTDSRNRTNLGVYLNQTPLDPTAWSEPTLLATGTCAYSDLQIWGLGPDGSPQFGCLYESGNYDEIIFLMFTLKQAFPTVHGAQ

SMILES | Ki ([1]; 4-MU-Neu5Ac as substrate, previously reported data) [µM] | Ki [1] [µM] | Ki [2] [µM] | Ki [3] [µM]
CC(=O)N[C@H]1[C@H]([C@H](O)[C@H](O)CSc2ccc(N=[N+]=[N-])cc2[N+](=O)[O-])OC(C(=O)O)=C[C@@H]1O [9-S-PANP Neu5Ac2en, 9-S-(4′-azido-2′-nitro-phenyl)-5-acetamido-2,6 anhydro-9-thio-2,5,9-trideoxy-D-glycero-D-galacto-non-2-enonic acid] | > 50 | – | – | –
CC(=O)N[C@H]1[C@H]([C@H](O)[C@H](O)CN=[N+]=[N-])OC(C(=O)O)=C[C@@H]1O [9-Azido Neu5Ac2en, 5-acetamido-2,6-anhydro-9-azido-3,5,9-trideoxy-D-glycero-D-galacto-non-2-enonic acid] | – | 50 | 10 | 10
